7 compounds from patent publication US20180201592A1, “2-AMINO-1,3,4-THIADIAZINE AND 2-AMINO-1,3,4-OXADIAZINE BASED ANTIFUNGAL AGENTS” (F2G Limited, priority 2015, published 2018) can be followed below.

Holding throughout (settings): banded MIC grade
One assay has as its system Aspergillus fumigatus. Description: Minimum inhibitory concentration, YAG medium. It counts as cell-based. Summed up: (§1)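 Broth microdilution in YAG medium (1% glucose, 1% ammonium chloride, 0.5% yeast extract) with spore inocula of 1-2×10^4 cfu/mL and doubling dilutions typically spanning 50-0.05 mg/L. Plates were incubated 24 hrs at 35° C and read by OD 485 nm. MIC is the lowest concentration giving >70% growth inhibition versus drug-free control, in mg/L.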

For the next assay, the system named is A. fumigatus 210. Briefly: Minimum inhibitory concentration, YAG medium. The assay is classed as cell-based, Aspergillus fumigatus. The gist of the method:
as §1

The next assay relates to A. terreus 49. Description: Minimum inhibitory concentration, YAG medium. It counts as cell-based, Aspergillus terreus. Summed up: (§2)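 MIC values (mg/L) were derived from well optical density at 485 nm. Plates with Aspergillus spores and doubling aqueous dilutions of compound (5 mg/mL DMSO stock) had been incubated at 35° C for 24 hrs.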
The test system of another assay is Aspergillus flavus. Briefly: Minimum inhibitory concentration, YAG medium. It counts as cell-based. The gist of the method: as §2
In another assay the test system is Aspergillus niger. Briefly: Minimum inhibitory concentration, YAG medium. It counts as cell-based. The gist of the method:
as §2

The next assay has as its system Aspergillus terreus. Description: Minimum inhibitory concentration, YAG medium. It counts as cell-based. The gist of the method: as §2
Another assay has as its system C. albicans. Description: Minimum inhibitory concentration, RPMI medium. It counts as cell-based. The gist of the method: (§3)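 Thawed 5 mg/mL DMSO stocks are vortexed, diluted into sterile water and serially halved in water. The MIC test is then run in RPMI 1640 at 35° C for 24-48 hrs. Wells are read at OD 485 nm.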
The next assay deals with C. parapsilosis. Description: Minimum inhibitory concentration, RPMI medium. The assay is classed as cell-based. Summed up: as §3
The test system of another assay is C. tropicalis. Briefly: Minimum inhibitory concentration, RPMI medium. It counts as cell-based. The gist of the method: as §3

Turning to `N#Cc1ccc(C2=NN=C(N)SC2)cc1`, in the assay on Aspergillus fumigatus, the “MIC grade, A. FUMIGATUS, YAG media” value is on record as 1 (1: ≥5 mg/L). In addition, the “MIC grade, A. FUMIGATUS 210, YAG media” value with A. fumigatus 210 is reported as 2 (2: 1-5 mg/L). In addition, in the assay on A. terreus 49, the “MIC grade, A. TERREUS 49, YAG media” value is reported as 2 (2: 1-5 mg/L). For the same compound, in the assay with Aspergillus flavus, the “MIC grade, A. FLAVUS, YAG media” value was 2 (2: 1-5 mg/L). Moreover, in the assay with Aspergillus niger, the “MIC grade, A. NIGER, YAG media” value is listed as 2 (2: 1-5 mg/L). In the assay on Aspergillus terreus, the “MIC grade, A. TERREUS, YAG media” value is given as 2 (2: 1-5 mg/L). For the same compound, the “MIC grade, C. ALBICANS, RPMI media” value against C. albicans is 1 (1: ≥20 mg/L). The “MIC grade, C. PARAPSILOSIS, RPMI media” value in the assay on C. parapsilosis is on record as 1 (1: ≥20 mg/L). The “MIC grade, C. TROPICALIS, RPMI media” value against C. tropicalis was 1 (1: ≥20 mg/L).
Take `NC1=NN=C(CCOC2CCCCC2)CS1`: in the assay on Aspergillus fumigatus, the “MIC grade, A. FUMIGATUS, YAG media” value is recorded as 2 (2: 1-5 mg/L). In addition, the “MIC grade, A. FUMIGATUS 210, YAG media” value in the assay on A. fumigatus 210 is 1 (1: ≥5 mg/L). Besides, in the assay on A. terreus 49, the “MIC grade, A. TERREUS 49, YAG media” value is listed as 2 (2: 1-5 mg/L). The “MIC grade, A. FLAVUS, YAG media” value with Aspergillus flavus is 2 (2: 1-5 mg/L). Further, the “MIC grade, A. NIGER, YAG media” value with Aspergillus niger was 2 (2: 1-5 mg/L). Also, in the assay on Aspergillus terreus, the “MIC grade, A. TERREUS, YAG media” value is on record as 2 (2: 1-5 mg/L). The “MIC grade, C. ALBICANS, RPMI media” value in the assay on C. albicans is recorded as 1 (1: ≥20 mg/L). In addition, the “MIC grade, C. PARAPSILOSIS, RPMI media” value against C. parapsilosis is reported as 2 (2: 5-20 mg/L). The “MIC grade, C. TROPICALIS, RPMI media” value against C. tropicalis is recorded as 1 (1: ≥20 mg/L).
With `CCCCOCCC1=NN=C(N)SC1`, the “MIC grade, A. FUMIGATUS, YAG media” value against Aspergillus fumigatus is 4 (4: <0.2 mg/L). The “MIC grade, A. FUMIGATUS 210, YAG media” value against A. fumigatus 210 was 4 (4: <0.2 mg/L). For the same compound, in the assay with A. terreus 49, the “MIC grade, A. TERREUS 49, YAG media” value is 4 (4: <0.2 mg/L). Further, in the assay with Aspergillus flavus, the “MIC grade, A. FLAVUS, YAG media” value is 3 (3: 0.2-1 mg/L). Also, the “MIC grade, A. NIGER, YAG media” value against Aspergillus niger was 4 (4: <0.2 mg/L). Besides, the “MIC grade, A. TERREUS, YAG media” value with Aspergillus terreus was 4 (4: <0.2 mg/L). Besides, the “MIC grade, C. ALBICANS, RPMI media” value with C. albicans is 1 (1: ≥20 mg/L). Besides, the “MIC grade, C. PARAPSILOSIS, RPMI media” value with C. parapsilosis is reported as 4 (4: <1 mg/L). In addition, in the assay on C. tropicalis, the “MIC grade, C. TROPICALIS, RPMI media” value was 2 (2: 5-20 mg/L).
As to `CC(C)OCCC1=NN=C(N)SC1`, the “MIC grade, A. FUMIGATUS, YAG media” value against Aspergillus fumigatus is 4 (4: <0.2 mg/L). Also, the “MIC grade, A. FUMIGATUS 210, YAG media” value against A. fumigatus 210 is 1 (1: ≥5 mg/L). In addition, in the assay on A. terreus 49, the “MIC grade, A. TERREUS 49, YAG media” value was 2 (2: 1-5 mg/L). Also, in the assay with Aspergillus flavus, the “MIC grade, A. FLAVUS, YAG media” value was 1 (1: ≥5 mg/L). Besides, the “MIC grade, A. NIGER, YAG media” value in the assay on Aspergillus niger was 1 (1: ≥5 mg/L). Moreover, the “MIC grade, A. TERREUS, YAG media” value in the assay with Aspergillus terreus was 2 (2: 1-5 mg/L). The “MIC grade, C. ALBICANS, RPMI media” value with C. albicans is given as 1 (1: ≥20 mg/L). Besides, the “MIC grade, C. PARAPSILOSIS, RPMI media” value in the assay on C. parapsilosis is 3 (3: 1-5 mg/L). The “MIC grade, C. TROPICALIS, RPMI media” value in the assay with C. tropicalis was 1 (1: ≥20 mg/L).
In the case of `COCCC1=NN=C(N)SC1`, the “MIC grade, A. FUMIGATUS, YAG media” value in the assay with Aspergillus fumigatus is 3 (3: 0.2-1 mg/L). Besides, in the assay on A. fumigatus 210, the “MIC grade, A. FUMIGATUS 210, YAG media” value is recorded as 2 (2: 1-5 mg/L). The “MIC grade, A. TERREUS 49, YAG media” value against A. terreus 49 is recorded as 3 (3: 0.2-1 mg/L). Further, the “MIC grade, A. FLAVUS, YAG media” value against Aspergillus flavus is on record as 3 (3: 0.2-1 mg/L). For the same compound, the “MIC grade, A. NIGER, YAG media” value with Aspergillus niger is 3 (3: 0.2-1 mg/L). Also, the “MIC grade, A. TERREUS, YAG media” value against Aspergillus terreus is listed as 3 (3: 0.2-1 mg/L). The “MIC grade, C. ALBICANS, RPMI media” value with C. albicans is 1 (1: ≥20 mg/L). Besides, the “MIC grade, C. PARAPSILOSIS, RPMI media” value in the assay with C. parapsilosis is given as 2 (2: 5-20 mg/L). The “MIC grade, C. TROPICALIS, RPMI media” value with C. tropicalis is given as 1 (1: ≥20 mg/L).
As to `NC1=NN=C(c2ccccn2)CS1`, the “MIC grade, A. FUMIGATUS, YAG media” value in the assay on Aspergillus fumigatus is 1 (1: ≥5 mg/L). Besides, the “MIC grade, A. FUMIGATUS 210, YAG media” value in the assay on A. fumigatus 210 is recorded as 1 (1: ≥5 mg/L). Moreover, in the assay with A. terreus 49, the “MIC grade, A. TERREUS 49, YAG media” value is reported as 1 (1: ≥5 mg/L). In addition, the “MIC grade, A. FLAVUS, YAG media” value with Aspergillus flavus was 1 (1: ≥5 mg/L). For the same compound, the “MIC grade, A. NIGER, YAG media” value in the assay with Aspergillus niger was 2 (2: 1-5 mg/L). Besides, the “MIC grade, A. TERREUS, YAG media” value with Aspergillus terreus is recorded as 1 (1: ≥5 mg/L). The “MIC grade, C. ALBICANS, RPMI media” value in the assay on C. albicans is 1 (1: ≥20 mg/L). Also, the “MIC grade, C. PARAPSILOSIS, RPMI media” value against C. parapsilosis is on record as 1 (1: ≥20 mg/L). In addition, the “MIC grade, C. TROPICALIS, RPMI media” value against C. tropicalis was 1 (1: ≥20 mg/L).
For `NC1=NN=C(c2cccc(Cl)c2)CS1`, in the assay with Aspergillus fumigatus, the “MIC grade, A. FUMIGATUS, YAG media” value was 1 (1: ≥5 mg/L). For the same compound, the “MIC grade, A. FUMIGATUS 210, YAG media” value in the assay on A. fumigatus 210 is 1 (1: ≥5 mg/L). For the same compound, the “MIC grade, A. TERREUS 49, YAG media” value in the assay with A. terreus 49 is recorded as 1 (1: ≥5 mg/L). Moreover, the “MIC grade, A. FLAVUS, YAG media” value against Aspergillus flavus is on record as 1 (1: ≥5 mg/L). Besides, in the assay on Aspergillus niger, the “MIC grade, A. NIGER, YAG media” value is on record as 1 (1: ≥5 mg/L). Further, the “MIC grade, A. TERREUS, YAG media” value in the assay on Aspergillus terreus is on record as 1 (1: ≥5 mg/L). In addition, the “MIC grade, C. ALBICANS, RPMI media” value against C. albicans is 1 (1: ≥20 mg/L). Moreover, in the assay on C. parapsilosis, the “MIC grade, C. PARAPSILOSIS, RPMI media” value is 1 (1: ≥20 mg/L). Besides, the “MIC grade, C. TROPICALIS, RPMI media” value against C. tropicalis is listed as 1 (1: ≥20 mg/L).
